In patent publication US9845330B2, “6-nitro-2,3-dihydroimidazo[2,1-b]oxazoles and a process for the preparation thereof” (priority 2013, dated 2017):
Values after ≈ are worked out from the molar mass of the structure shown. Read-outs that look alike come from different tables or passages of the source.

Tests used:
[1] = tested on: macrophage J774 cells line; assay: Cytotoxicity assay (MTT) in macrophage J774 cells; format: cell-based; settings: J774 cells, 24 hrs, MTT
Procedure: The study was carried out using macrophage J774 cells line (ATCC-USA). Cells were grown in Rosewell Park Memorial Institute Medium (RPMI) containing 10% fetal calf serum (FCS) and supplemented with 75 mg/liter penicillin, 100 mg/liter streptomycin, 110 mg/liter Sodium pyruvate, 2.38 gm/liter HEPES, 0.05 mM 2 β-mercaptoethanol, and 2 gm/liter NaHCO3, in a humidified atmosphere in 5% CO2 at 37° C., and were sub-cultured at 1:4 ratio once a week.
Cells were plated at a density of 3×10^4 cells/cm^2 and maintained in culture medium for 12 hours. Cells were seeded onto 96-well flat bottom plates and FCS was reduced to 5% for the experiment. Stock solutions of compounds IA1 to IIC10 were prepared fresh to avoid oxidation. Cells were incubated with the compounds (40 μg/ml) for 24 hrs.
After the completion of incubation, the medium was removed and cell viability was evaluated by assaying for the ability of functional mitochondria to catalyze the reduction of 3-(4,5-dimethylthiazol-2-yl)-2,5-diphenyltetrazolium bromide (MTT) to form formazan salt by mitochondrial dehydrogenases, and determined by Elisa reader at 450 nm (Multiskan Spectrum; Thermo Electron Corporation, USA). Percentage cytotoxicity was calculated with respect to the untreated cells.

[2] = tested on: M. tuberculosis H37Rv (ATCC 27294); assay: MIC by broth dilution method, M. tuberculosis H37Rv; format: cell-based; settings: Mycobacterium tuberculosis, 504 h
[3] = broth dilution, 3 weeks, read-out: MIC M. tb H37Rv
[4] = text summary: sensitive H37Rv as well as MDR and XDR strains of M. tuberculosis, read-out: MIC value

## C[C@]1(COc2ccc(-n3cc(-c4ccccc4F)nn3)cc2)Cn2cc([N+](=O)[O-])nc2O1 [IA4, (R)-2-{4-[4-(2-fluorophenyl)-1H-1,2,3-triazol-1-yl]phenoxymethyl}-2,3-dihydro-2-methyl-6-nitroimidazo[2,1-b]oxazole]
[1]
  Cytotoxicity: >40 µg/mL
[2]; [3]
  MIC: 1 µg/mL (≈ 2.29 µM)

## C[C@]1(COc2ccc(-n3cc(-c4ccc(F)cc4F)nn3)cc2)Cn2cc([N+](=O)[O-])nc2O1 [IA7, (R)-2-{4-[4-(2,4-difluorophenyl)-1H-1,2,3-triazol-1-yl]phenoxymethyl}-2,3-dihydro-2-methyl-6-nitroimidazo[2,1-b]oxazole]
[1]
  Cytotoxicity: >40 µg/mL
[2]; [3]
  MIC: 2 µg/mL (≈ 4.4 µM)

## Cc1ccc(-c2cn(-c3ccc(OC[C@@]4(C)Cn5cc([N+](=O)[O-])nc5O4)cc3)nn2)cc1 [IA8, (R)-2-{4-[4-(4-methylphenyl)-1H-1,2,3-triazol-1-yl]phenoxymethyl}-2,3-dihydro-2-methyl-6-nitroimidazo[2,1-b]oxazole]
[1]
  Cytotoxicity: >40 µg/mL
[2]; [3]
  MIC: 1 µg/mL (≈ 2.31 µM)

## CC(C)c1ccc(-c2cn(-c3ccc(OC[C@@]4(C)Cn5cc([N+](=O)[O-])nc5O4)cc3)nn2)cc1 [IA9, (R)-2-{4-[4-(4-isopropylphenyl)-1H-1,2,3-triazol-1-yl]phenoxymethyl}-2,3-dihydro-2-methyl-6-nitroimidazo[2,1-b]oxazole]
[1]
  Cytotoxicity: >40 µg/mL
[2]; [3]
  MIC: 1 µg/mL (≈ 2.17 µM)

## C[C@]1(COc2ccc(-n3cc(-c4cccc(F)c4)nn3)cc2)Cn2cc([N+](=O)[O-])nc2O1 [IA10, (R)-2-{4-[4-(3-fluorophenyl)-1H-1,2,3-triazol-1-yl]phenoxymethyl}-2,3-dihydro-2-methyl-6-nitroimidazo[2,1-b]oxazole]
[1]
  Cytotoxicity: >40 µg/mL
[2]; [3]
  MIC: 2 µg/mL (≈ 4.58 µM)

## CCCCCCCc1cn(-c2ccc(OC[C@@]3(C)Cn4cc([N+](=O)[O-])nc4O3)cc2)nn1 [IA16, (R)-2-{4-[4-heptyl-1H-1,2,3-triazol-1-yl]phenoxymethyl}-2,3-dihydro-2-methyl-6-nitroimidazo[2,1-b]oxazole]
[1]
  Cytotoxicity: >40 µg/mL
[2]; [3]
  MIC: 4 µg/mL (≈ 9.08 µM)

## C[C@]1(COc2cccc(-n3cc(-c4ccc(F)cc4)nn3)c2)Cn2cc([N+](=O)[O-])nc2O1 [IA17, (R)-2-{3-[4-(4-fluorophenyl)-1H-1,2,3-triazol-1-yl]phenoxymethyl}-2,3-dihydro-2-methyl-6-nitroimidazo[2,1-b]oxazole]
[1]
  Cytotoxicity: >40 µg/mL
[2]; [3]
  MIC: 2 µg/mL (≈ 4.58 µM)

## C[C@]1(COc2cccc(-n3cc(-c4ccc(C(F)(F)F)cc4)nn3)c2)Cn2cc([N+](=O)[O-])nc2O1 [IA18, (R)-2-{3-[4-(4-trifluoromethylphenyl)-1H-1,2,3-triazol-1-yl]phenoxymethyl}-2,3-dihydro-2-methyl-6-nitroimidazo[2,1-b]oxazole]
[1]
  Cytotoxicity: >40 µg/mL
[2]; [3]
  MIC: 2 µg/mL (≈ 4.11 µM)

## C[C@]1(COc2cccc(-n3cc(-c4ccc(OC(F)(F)F)cc4)nn3)c2)Cn2cc([N+](=O)[O-])nc2O1 [IA19, (R)-2-{3-[4-(4-trifluoromethoxyphenyl)-1H-1,2,3-triazol-1-yl]phenoxymethyl}-2,3-dihydro-2-methyl-6-nitroimidazo[2,1-b]oxazole]
[1]
  Cytotoxicity: >40 µg/mL
[2]; [3]
  MIC: 4 µg/mL (≈ 7.96 µM)

## C[C@]1(COc2cccc(-n3cc(-c4ccc(F)cc4F)nn3)c2)Cn2cc([N+](=O)[O-])nc2O1 [IA20, (R)-2-{3-[4-(2,4-difluorophenyl)-1H-1,2,3-triazol-1-yl]phenoxymethyl}-2,3-dihydro-2-methyl-6-nitroimidazo[2,1-b]oxazole]
[1]
  Cytotoxicity: >40 µg/mL
[2]; [3]
  MIC: 4 µg/mL (≈ 8.8 µM)

## C[C@]1(COc2ccccc2-n2cc(-c3ccc(F)cc3)nn2)Cn2cc([N+](=O)[O-])nc2O1 [IA21, (R)-2-{2-[4-(4-fluorophenyl)-1H-1,2,3-triazol-1-yl]phenoxymethyl}-2,3-dihydro-2-methyl-6-nitroimidazo[2,1-b]oxazole]
[1]
  Cytotoxicity: >40 µg/mL
[2]; [3]
  MIC: 1 µg/mL (≈ 2.29 µM)

## C[C@]1(COc2ccccc2-n2cc(-c3ccc(C(F)(F)F)cc3)nn2)Cn2cc([N+](=O)[O-])nc2O1 [IA22, (R)-2-{2-[4-(4-trifluoromethylphenyl)-1H-1,2,3-triazol-1-yl]phenoxymethyl}-2,3-dihydro-2-methyl-6-nitroimidazo[2,1-b]oxazole]
[1]
  Cytotoxicity: >40 µg/mL
[2]; [3]
  MIC: 4 µg/mL (≈ 8.22 µM)

## C[C@]1(COc2ccccc2-n2cc(-c3ccc(OC(F)(F)F)cc3)nn2)Cn2cc([N+](=O)[O-])nc2O1 [IA23, (R)-2-{2-[4-(4-trifluoromethoxyphenyl)-1H-1,2,3-triazol-1-yl]phenoxymethyl}-2,3-dihydro-2-methyl-6-nitroimidazo[2,1-b]oxazole]
[1]
  Cytotoxicity: >40 µg/mL
[2]; [3]
  MIC: 4 µg/mL (≈ 7.96 µM)

## C[C@]1(COc2cccc(-n3cc(COc4ccc(C(F)(F)F)cc4)nn3)c2)Cn2cc([N+](=O)[O-])nc2O1 [IA35]
[1]
  Cytotoxicity: >40 µg/mL
[2]; [3]
  MIC: 2 µg/mL (≈ 3.87 µM)

## C[C@]1(COc2cccc(-n3cc(COc4ccccc4F)nn3)c2)Cn2cc([N+](=O)[O-])nc2O1 [IA36]
[1]
  Cytotoxicity: >40 µg/mL
[2]; [3]
  MIC: 2 µg/mL (≈ 4.29 µM)

## Cc1ccc(OCc2cn(-c3cccc(OC[C@@]4(C)Cn5cc([N+](=O)[O-])nc5O4)c3)nn2)cc1 [IA37]
[1]
  Cytotoxicity: >40 µg/mL
[2]; [3]
  MIC: 4 µg/mL (≈ 8.65 µM)

## CC(C)c1ccc(OCc2cn(-c3cccc(OC[C@@]4(C)Cn5cc([N+](=O)[O-])nc5O4)c3)nn2)cc1 [IA38]
[1]
  Cytotoxicity: >40 µg/mL
[2]; [3]
  MIC: 4 µg/mL (≈ 8.15 µM)

## C[C@]1(COc2ccc(-n3nnnc3-c3ccccc3)cc2)Cn2cc([N+](=O)[O-])nc2O1 [IB1, (R)-2-{4-[5-phenyl-1H-tetrazol-1-yl]phenoxymethyl}-2,3-dihydro-2-methyl-6-nitroimidazo[2,1-b]oxazole]
[1]
  Cytotoxicity: >40 µg/mL
[2]; [3]
  MIC: 2 µg/mL (≈ 4.77 µM)
[2]; [4]
  MIC: 1 to 4 µg/mL (≈ 2.38 to 9.54 µM)

## C[C@]1(COc2ccc(-n3nnnc3-c3ccc(OC(F)(F)F)cc3)cc2)Cn2cc([N+](=O)[O-])nc2O1 [IB2, (R)-2-{4-[5-(4-trifluoromethoxyphenyl)-1H-tetrazol-1-yl]phenoxymethyl}-2,3-dihydro-2-methyl-6-nitroimidazo[2,1-b]oxazole]
[1]
  Cytotoxicity: >40 µg/mL
[2]; [3]
  MIC: 2 µg/mL (≈ 3.97 µM)
[2]; [4]
  MIC: 1 to 4 µg/mL (≈ 1.99 to 7.95 µM)

## Cc1ccc(-c2nnnn2-c2ccc(OC[C@@]3(C)Cn4cc([N+](=O)[O-])nc4O3)cc2)cc1 [IB3, (R)-2-{4-[5-(4-methylphenyl)-1H-tetrazol-1-yl]phenoxymethyl}-2,3-dihydro-2-methyl-6-nitroimidazo[2,1-b]oxazole]
[1]
  Cytotoxicity: >40 µg/mL
[2]; [3]
  MIC: 4 µg/mL (≈ 9.23 µM)
[2]; [4]
  MIC: 1 to 4 µg/mL (≈ 2.31 to 9.23 µM)

## C[C@]1(COc2ccc(-n3nnnc3-c3ccc(F)cc3)cc2)Cn2cc([N+](=O)[O-])nc2O1 [IB4, (R)-2-{4-[5-(4-fluorophenyl)-1H-tetrazol-1-yl]phenoxymethyl}-2,3-dihydro-2-methyl-6-nitroimidazo[2,1-b]oxazole]
[1]
  Cytotoxicity: >40 µg/mL
[2]; [3]
  MIC: 4 µg/mL (≈ 9.15 µM)
[2]; [4]
  MIC: 1 to 4 µg/mL (≈ 2.29 to 9.15 µM)

## C[C@]1(COc2ccc(-n3nnnc3-c3ccc(C(F)(F)F)cc3)cc2)Cn2cc([N+](=O)[O-])nc2O1 [IB5, (R)-2-{4-[5-(4-trifluoromethylphenyl)-1H-tetrazol-1-yl]phenoxymethyl}-2,3-dihydro-2-methyl-6-nitroimidazo[2,1-b]oxazole]
[1]
  Cytotoxicity: >40 µg/mL
[2]; [3]
  MIC: 1 µg/mL (≈ 2.05 µM)
[2]; [4]
  MIC: 1 to 4 µg/mL (≈ 2.05 to 8.21 µM)

## CCc1ccc(-c2nnnn2-c2ccc(OC[C@@]3(C)Cn4cc([N+](=O)[O-])nc4O3)cc2)cc1 [IB6, (R)-2-{4-[5-(4-ethylphenyl)-1H-tetrazol-1-yl]phenoxymethyl}-2,3-dihydro-2-methyl-6-nitroimidazo[2,1-b]oxazole]
[1]
  Cytotoxicity: >40 µg/mL
[2]; [3]
  MIC: 2 µg/mL (≈ 4.47 µM)
[2]; [4]
  MIC: 1 to 4 µg/mL (≈ 2.23 to 8.94 µM)

## C[C@]1(COc2ccc(-n3nnnc3Oc3ccc(F)cc3)cc2)Cn2cc([N+](=O)[O-])nc2O1 [IB7, (R)-2-{4-[5-(4-fluorophenoxy)-1H-tetrazol-1-yl]phenoxymethyl}-2,3-dihydro-2-methyl-6-nitroimidazo[2,1-b]oxazole]
[1]
  Cytotoxicity: >40 µg/mL
[2]; [3]
  MIC: 2 µg/mL (≈ 4.41 µM)
[2]; [4]
  MIC: 1 to 4 µg/mL (≈ 2.21 to 8.82 µM)

## C[C@]1(COc2ccc(-n3nnnc3Oc3ccc(C(F)(F)F)cc3)cc2)Cn2cc([N+](=O)[O-])nc2O1 [IB8, (R)-2-{4-[5-(4-trifluoromethylphenoxy)-1H-tetrazol-1-yl]phenoxymethyl}-2,3-dihydro-2-methyl-6-nitroimidazo[2,1-b]oxazole]
[1]
  Cytotoxicity: >40 µg/mL
[2]; [3]
  MIC: 4 µg/mL (≈ 7.95 µM)
[2]; [4]
  MIC: 1 to 4 µg/mL (≈ 1.99 to 7.95 µM)

## Cc1ccc(Oc2nnnn2-c2ccc(OC[C@@]3(C)Cn4cc([N+](=O)[O-])nc4O3)cc2)cc1 [IB9, (R)-2-{4-[5-(4-methylphenoxy)-1H-tetrazol-1-yl]phenoxymethyl}-2,3-dihydro-2-methyl-6-nitroimidazo[2,1-b]oxazole]
[1]
  Cytotoxicity: >40 µg/mL
[2]; [3]
  MIC: 4 µg/mL (≈ 8.9 µM)
[2]; [4]
  MIC: 1 to 4 µg/mL (≈ 2.23 to 8.9 µM)

## C[C@]1(COc2ccc(-n3nnnc3Oc3ccc(OC(F)(F)F)cc3)cc2)Cn2cc([N+](=O)[O-])nc2O1 [IB10, (R)-2-{4-[5-(4-trifluoromethoxyphenoxy)-1H-tetrazol-1-yl]phenoxymethyl}-2,3-dihydro-2-methyl-6-nitroimidazo[2,1-b]oxazole]
[1]
  Cytotoxicity: >40 µg/mL
[2]; [3]
  MIC: 1 µg/mL (≈ 1.93 µM)
[2]; [4]
  MIC: 1 to 4 µg/mL (≈ 1.93 to 7.7 µM)
